Measured values reported in article PMC9142856 (Heliyon, 2022).

Biological target: dipeptidyl peptidase-IV (DPP-IV) (Homo sapiens, UniProt P27487)
Test: in vitro enzyme inhibition assay, Gly-Pro-p-nitroanilide substrate
Type: biochemical

Chain of dipeptidyl peptidase-IV (DPP-IV) (P27487 39-766): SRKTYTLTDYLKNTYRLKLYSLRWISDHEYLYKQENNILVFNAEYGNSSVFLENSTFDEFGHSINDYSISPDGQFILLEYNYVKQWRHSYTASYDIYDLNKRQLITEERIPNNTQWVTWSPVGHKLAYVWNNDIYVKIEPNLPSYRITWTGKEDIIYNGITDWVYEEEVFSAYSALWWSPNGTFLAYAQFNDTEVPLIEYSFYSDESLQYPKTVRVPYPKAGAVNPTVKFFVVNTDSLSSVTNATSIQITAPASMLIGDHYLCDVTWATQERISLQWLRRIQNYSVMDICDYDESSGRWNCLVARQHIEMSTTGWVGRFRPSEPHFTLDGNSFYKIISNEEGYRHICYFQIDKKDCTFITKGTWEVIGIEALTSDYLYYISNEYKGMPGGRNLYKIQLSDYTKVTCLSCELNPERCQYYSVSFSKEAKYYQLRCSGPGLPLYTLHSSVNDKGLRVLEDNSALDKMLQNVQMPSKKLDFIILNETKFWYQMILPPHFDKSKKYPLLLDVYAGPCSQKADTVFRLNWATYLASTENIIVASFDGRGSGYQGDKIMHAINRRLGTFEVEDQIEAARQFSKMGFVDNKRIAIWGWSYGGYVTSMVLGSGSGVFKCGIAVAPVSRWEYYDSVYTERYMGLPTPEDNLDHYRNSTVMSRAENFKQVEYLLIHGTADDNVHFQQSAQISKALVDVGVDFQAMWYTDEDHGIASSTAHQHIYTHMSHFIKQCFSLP

## CC(C)=CCC/C(C)=C/Cc1c(O)ccc(C(=O)/C=C/c2ccc(O)cc2)c1O [XA, xanthoangelol]
  IC50: 10.5 µM
